The text below walks through data of US9334272B2, “Derivatives of purinic and pyrimidinic antiviral agents and use thereof as potent anticancer agents” (Ramot at Tel-Aviv University Ltd., priority 2007, dated 2016).

In one assay the test system is U-251 cells. Kind of assay: Nitric oxide production assay, U-251 cells. The class given is cell-based, human. The note with it: 50 μM (mixture 50 μM + 50 μM), 1 hour treatment. The procedure: U251 cells (5×10^4) were seeded in 24 well plates, and after 24 hours washed and resuspended in PBS. […] Fluorescence was measured with excitation/emission filters of 390/440 nm in a FluoStar fluorimeter. The concentration of nitrate was determined by subtracting the nitrite concentration from the total concentration of nitrite+nitrate.

Assay [1] deals with 4T1 murine breast carcinoma. Kind of assay: Metastatic 4T1 breast carcinoma model. The note with it: 25 mg/kg, 4T1 model, p<0.05. The class given is in vivo, mice. The procedure: The syngeneic murine breast carcinoma metastatic model was performed with 8-10 weeks old BALB-c mice implanted with 4T1 cells. When the tumor volume reached 75-180 mm^3 (after ˜10 days), treatment was initiated for an additional 21 days. At termination, the animals were sacrificed and their lungs removed, stained with Bouin's solution, and lung lesions were scored under an illuminated magnifying glass.

Regarding `CCCC(CCC)C(=O)Nc1nc2c(ncn2COCCOC(=O)C(CCC)CCC)c(=O)[nH]1` [Compound 6, N-valproyl-9-(2-valproyloxy)ethoxymethylguanine], in the assay with U-251 cells, the NO production result is on record as “increased NO production in U-251 cells considerably”. Also, in assay [1], the lung weight entry is recorded as “reduction in lung weight” and the “number of observed lung lesions” value was “reduction in the number of observed lung lesions”.
